These results are taken from ChEMBL document CHEMBL1944604, “Aminopurine based JNK inhibitors for the prevention of ischemia reperfusion injury” (Bioorg Med Chem Lett, 2012).

In data set [1] the test system is Salmonella typhimurium. In words: Induction of mutagenesis in Salmonella Typhimurium by Ames test. To be noted: salmonella enterica subsp. enterica serovar typhimurium. It counts as toxicity, organism-based.
In data set [2] the test system is Hepatocyte. Briefly: Drug metabolism in human hepatocytes after 60 mins. It counts as ADME, cell-based. The following applies: 1 h.
The target of data set [3] is Mitogen-activated protein kinase 8 (Homo sapiens, UniProt P45983). In words: Inhibition of full length Hexa-His-tagged JNK1 using GST-tagged cJun and [gamma33P]ATP as substrate after 60 mins by scintillation counting.
Sequence of Mitogen-activated protein kinase 8 (P45983 whole entry, the tested form may be a part): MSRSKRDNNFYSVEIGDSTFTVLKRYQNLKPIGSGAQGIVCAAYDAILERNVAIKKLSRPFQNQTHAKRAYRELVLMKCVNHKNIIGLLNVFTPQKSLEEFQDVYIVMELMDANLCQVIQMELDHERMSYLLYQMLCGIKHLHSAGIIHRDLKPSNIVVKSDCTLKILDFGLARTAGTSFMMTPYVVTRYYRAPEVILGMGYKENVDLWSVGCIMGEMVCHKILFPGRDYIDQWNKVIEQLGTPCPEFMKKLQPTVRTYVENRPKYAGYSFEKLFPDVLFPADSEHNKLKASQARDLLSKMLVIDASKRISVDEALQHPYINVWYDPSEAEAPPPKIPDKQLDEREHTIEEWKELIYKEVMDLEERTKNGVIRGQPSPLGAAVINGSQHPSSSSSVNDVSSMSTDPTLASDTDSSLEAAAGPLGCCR
Data set [4] in a line: Half life in rat at 10 mg/kg, iv infusion. To be noted: in vivo. Also on record: dose 10 mg/kg, route intravenous. It counts as ADME, organism-based.
The target in data set [5] is T1, Cytochrome P450 3A4 (Homo sapiens, UniProt P08684). In words: Inhibition of CYP3A4 in human liver microsomes up to 30 uM. It counts as ADME, Microsome. (In general: Microsomes from liver hold many membrane-bound enzymes, among them those of drug oxidation.)
T1 sequence (P08684 whole entry): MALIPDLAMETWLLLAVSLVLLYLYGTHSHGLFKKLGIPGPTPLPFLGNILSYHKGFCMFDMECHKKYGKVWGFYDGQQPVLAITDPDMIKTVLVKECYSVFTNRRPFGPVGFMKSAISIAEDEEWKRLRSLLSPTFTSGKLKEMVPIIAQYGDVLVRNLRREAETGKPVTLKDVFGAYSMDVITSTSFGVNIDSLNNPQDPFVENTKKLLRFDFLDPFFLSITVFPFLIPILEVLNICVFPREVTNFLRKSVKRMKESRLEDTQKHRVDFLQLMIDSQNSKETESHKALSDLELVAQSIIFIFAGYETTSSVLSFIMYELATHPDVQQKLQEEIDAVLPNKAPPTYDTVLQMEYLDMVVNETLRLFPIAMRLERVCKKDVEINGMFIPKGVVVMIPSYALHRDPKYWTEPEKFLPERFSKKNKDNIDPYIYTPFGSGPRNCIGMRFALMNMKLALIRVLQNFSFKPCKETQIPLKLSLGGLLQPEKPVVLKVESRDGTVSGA
Data set [6] is described as follows: AUC in cynomolgus monkey at 1 mg/kg, iv bolus. The arrangement: dose 1 mg/kg, route intravenous. It counts as ADME, organism-based, Macaca fascicularis. The following applies: plasma.
Data set [7] can be described thus: Volume of distribution at steady state in rat at 10 mg/kg, iv infusion. It counts as ADME, organism-based. The arrangement: dose 10 mg/kg, route intravenous. To be noted: in vivo, read-out: Vdss.
The target in data set [8] is CYP2D6 (Homo sapiens, UniProt P10635). In words: Drug metabolism assessed as CYP2D6-mediated compound loss after 30 mins. It counts as ADME. The following applies: recombinant enzyme; read-out: Drug metabolism.
Sequence of CYP2D6 (P10635 whole entry): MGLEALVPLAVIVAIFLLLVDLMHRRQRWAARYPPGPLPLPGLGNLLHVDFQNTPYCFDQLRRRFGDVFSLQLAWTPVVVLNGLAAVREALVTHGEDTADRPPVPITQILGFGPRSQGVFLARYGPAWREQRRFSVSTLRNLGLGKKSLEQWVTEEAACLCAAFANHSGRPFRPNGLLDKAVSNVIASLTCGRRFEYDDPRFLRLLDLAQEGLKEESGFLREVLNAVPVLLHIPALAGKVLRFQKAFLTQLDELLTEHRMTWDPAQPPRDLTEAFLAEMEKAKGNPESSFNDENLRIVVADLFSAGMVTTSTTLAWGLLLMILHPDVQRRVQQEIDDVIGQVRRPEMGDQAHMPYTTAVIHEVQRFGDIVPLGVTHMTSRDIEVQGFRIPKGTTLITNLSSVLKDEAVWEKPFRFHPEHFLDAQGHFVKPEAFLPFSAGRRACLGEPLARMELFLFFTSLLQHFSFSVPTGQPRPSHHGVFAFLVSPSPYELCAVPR
Data set [9] can be described thus: Metabolic stability of the compound in mouse liver microsomes assessed as compound remaining at 3 uM after 30 mins. It counts as ADME, Microsome. To be noted: read-out: Stability.
The target of data set [10] is T1, Cytochrome P450 3A4. In words: Inhibition of recombinant CYP3A4 up to 30 uM. It counts as ADME. The following applies: recombinant enzyme.
Data set [11] concerns Rattus norvegicus. Briefly: Antiischemic activity in Lewis rat ischemia reperfusion model assessed as increase in survival rate at 10 mg/kg, iv bolus administered 15 mins before ischemia challenge relative to control. It counts as functional.
Data set [12] is described as follows: Volume of distribution at steady state in rat at 2 to 10 mg/kg, iv. To be noted: in vivo, read-out: Vdss. Also on record: dose 2-10 mg/kg, route intravenous. Format: ADME, organism-based.
The target of data set [13] is Cytochrome P450 2C19 (Homo sapiens, UniProt P33261). In words: Inhibition of recombinant CYP2C19 up to 30 uM. Format: ADME. To be noted: recombinant enzyme.
Sequence of Cytochrome P450 2C19 (P33261 whole entry): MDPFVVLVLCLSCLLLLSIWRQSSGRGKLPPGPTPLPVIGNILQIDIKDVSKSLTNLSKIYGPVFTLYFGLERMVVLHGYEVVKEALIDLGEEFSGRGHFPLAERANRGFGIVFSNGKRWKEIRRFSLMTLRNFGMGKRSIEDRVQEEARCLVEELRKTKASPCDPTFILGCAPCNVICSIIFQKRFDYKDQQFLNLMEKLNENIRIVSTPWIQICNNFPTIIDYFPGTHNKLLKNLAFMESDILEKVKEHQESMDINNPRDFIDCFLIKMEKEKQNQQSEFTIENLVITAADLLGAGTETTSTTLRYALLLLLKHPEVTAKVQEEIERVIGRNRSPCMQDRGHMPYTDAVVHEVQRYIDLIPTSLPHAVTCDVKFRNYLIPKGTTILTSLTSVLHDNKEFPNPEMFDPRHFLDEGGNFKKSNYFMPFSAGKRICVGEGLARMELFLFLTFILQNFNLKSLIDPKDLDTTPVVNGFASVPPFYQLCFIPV
Data set [14] deals with Hepatocyte. In words: Drug metabolism in rat hepatocytes after 60 mins. The following applies: 1 h. It counts as ADME, cell-based.
The nature of data set [15]: Clearance in cynomolgus monkey at 1 mg/kg, iv bolus. It counts as ADME, organism-based, Macaca fascicularis. To be noted: in vivo. The arrangement: dose 1 mg/kg, route intravenous.
Data set [16] in a line: Clearance in rat at 2 to 10 mg/kg, iv. The arrangement: dose 2-10 mg/kg, route intravenous. Format: ADME, organism-based. To be noted: in vivo.
The target in data set [17] is hERG (KCNH2) (Homo sapiens, UniProt Q12809). Briefly: Inhibition of human ERG at 10 uM.
Sequence of hERG (KCNH2) (Q12809 whole entry): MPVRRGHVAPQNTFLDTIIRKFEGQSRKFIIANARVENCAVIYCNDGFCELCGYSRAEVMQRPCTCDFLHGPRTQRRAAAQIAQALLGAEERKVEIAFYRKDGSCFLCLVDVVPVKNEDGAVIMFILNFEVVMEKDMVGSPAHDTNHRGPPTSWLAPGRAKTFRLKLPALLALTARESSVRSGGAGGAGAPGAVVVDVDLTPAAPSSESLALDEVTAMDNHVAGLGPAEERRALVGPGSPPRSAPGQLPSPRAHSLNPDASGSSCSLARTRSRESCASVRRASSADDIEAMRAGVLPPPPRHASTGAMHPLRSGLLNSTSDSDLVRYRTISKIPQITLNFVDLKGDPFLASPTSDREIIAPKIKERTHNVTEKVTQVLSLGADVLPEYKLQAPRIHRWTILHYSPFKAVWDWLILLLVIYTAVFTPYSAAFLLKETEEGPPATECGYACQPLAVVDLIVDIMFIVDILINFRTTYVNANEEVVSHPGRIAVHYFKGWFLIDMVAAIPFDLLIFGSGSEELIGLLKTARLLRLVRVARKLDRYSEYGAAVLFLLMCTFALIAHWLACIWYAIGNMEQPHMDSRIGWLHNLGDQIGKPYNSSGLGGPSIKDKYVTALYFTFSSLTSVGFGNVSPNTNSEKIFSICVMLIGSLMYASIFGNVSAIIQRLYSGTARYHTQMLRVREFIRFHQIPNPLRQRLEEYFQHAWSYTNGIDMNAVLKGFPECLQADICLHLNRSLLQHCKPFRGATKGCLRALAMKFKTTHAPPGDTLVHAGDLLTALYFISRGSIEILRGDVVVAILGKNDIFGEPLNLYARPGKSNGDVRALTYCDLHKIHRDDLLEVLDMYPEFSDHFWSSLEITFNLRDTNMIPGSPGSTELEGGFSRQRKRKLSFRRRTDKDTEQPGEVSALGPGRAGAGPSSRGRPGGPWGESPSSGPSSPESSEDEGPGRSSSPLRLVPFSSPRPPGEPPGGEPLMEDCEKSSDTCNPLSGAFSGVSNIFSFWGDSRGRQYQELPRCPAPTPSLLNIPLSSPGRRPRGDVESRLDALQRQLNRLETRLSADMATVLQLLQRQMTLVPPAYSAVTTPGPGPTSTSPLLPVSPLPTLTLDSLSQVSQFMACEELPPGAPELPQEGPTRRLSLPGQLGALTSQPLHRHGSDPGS

pIC50: −log10 of the molar value.

Consider `N[C@H]1CC[C@H](Nc2ncc3nc(Nc4ccc(F)cc4F)n(C4CCCC4)c3n2)CC1`, for which the Activity result in data set [1] was “Non-toxic”. Besides, the Drug metabolism result in data set [2] and in data set [14] was “Not Active” throughout. Moreover, the pIC50 in data set [3] was 6.57. This compound also had a half-life in [4] of 10 h. The “inhibition (INH)” value in [5], in data set [10] and in [13] was “Not Active” in each case. The compound also gave an AUC in data set [6] of 7 µM·h. In addition, the Vd amounted to 55 L/kg in data set [7] and 75 L/kg in [12]. In addition, the metabolised at 0.5 h in data set [8] was 1.4%. Further, in data set [9], the remaining at 0.5 h, 3 µM came out at 100%. Also, the survival at 10 mg/kg in data set [11] amounted to 80%. The clearance amounted to 5 mL/min/kg in data set [15] and 66 mL/min/kg in data set [16]. Also, 10 µM produced 59% inhibition in [17].

One may read the pIC50 as the negative decadic logarithm of the IC50, by convention in mol/L. Broadly, the half-life is how long it takes for the measured level to halve. A word on the AUC: it is concentration integrated over time. As usually defined, the clearance is the rate of elimination divided by the concentration. In general, inhibition refers to the relative decrease from the control value, in per cent.
